Literature values as cited in patent publication US20220211602A1, “INCREASING THE STABILITY OF AGENTS FOR TREATING KERATIN MATERIAL” (Henkel AG & Co. KGaA, priority 2019, published 2022).

Details: for solubility in water: 25° C.

Row | solubility in water (in words) (at 25° C.) | Structure (SMILES) | solubility in water
1 | – | O=C([O-])c1c(Cl)c(Cl)c(Cl)c(Cl)c1-c1c2c(Br)cc(=O)c(Br)c-2oc2c(Br)c(O)cc(Br)c12.O=C([O-])c1c(Cl)c(Cl)c(Cl)c(Cl)c1-c1c2c(Br)cc(=O)c(Br)c-2oc2c(Br)c(O)cc(Br)c12.[Na+].[Na+] [Acid Red 92, disodium salt of 3,4,5,6-tetrachloro-2-(1,4,5,8-tetrabromo-6-hydroxy-3-oxoxanthen-9-yl)benzoic acid] | greater than 10 g/L
2 | highly soluble | O=C([O-])C1=NN(c2ccc(S(=O)(=O)[O-])cc2)C(=O)C1N=Nc1ccc(S(=O)(=O)[O-])cc1.[Na+].[Na+].[Na+] (stereo not shown) [Acid Yellow 23, trisodium salt of4,5-dihydro-5-oxo-1-(4-sulfophenyl)-4-((4-sulfophenyl)azo)-1H-pyrazole-3-carboxylic acid] | –
3 | – | Nc1cc(S(=O)(=O)[O-])cc2cc(S(=O)(=O)[O-])c(N=Nc3ccccc3)c(O)c12.[Na+].[Na+] [Acid Red 33, disodium salt of 5-amino-4-hydroxy-3-(phenylazo)-naphthalene-2,7-disulphonate] | 2500 µg/mL
4 | – | O=S(=O)([O-])c1ccc(N=Nc2c(O)ccc3ccccc23)cc1.[Na+] [Acid Orange 7, sodium salt of 4-[(2-hydroxy-1-naphthyDazo]benzene sulphonate] | more than 7 g/L
